Measured values as given in patent US9510598B2, “Nitrogen-containing heterocyclic compounds for plant disease control” (BAYER CROPSCIENCE AG, priority 2012, dated 2016).
Where two headings read alike, the source gives them in different places.

Key:
[1] = assay type: physicochemical
Alternaria brassicae = test: In vivo preventive test on Alternaria brassicae (leaf spot on radish); conditions: 500 ppm; radish plants sprayed 24 hours before contamination; grading 5 days after contamination vs control plants
Description: Radish plants (“Pernod Clair” variety), sown in starter cups on a 50/50 peat soil-pozzolana substrate and grown at 17° C., are treated at the 2-leaf stage by spraying with the active ingredient prepared as described above. Plants, used as controls, are treated with the mixture of acetone/tween/DMSO/water not containing the active material. After 24 hours, the plants are contaminated by spraying the leaves with an aqueous suspension of Alternaria brassicae spores (50 000 spores per ml). The spores are collected from a 15-day-old culture. […] Grading (% of efficacy) is carried out 5 days after the contamination, in comparison with the control plants.

Septoria tritici = test: In vivo preventive test on Septoria tritici (leaf spot on wheat); conditions: 500 ppm; wheat plants sprayed 24 hours before contamination; grading 21 to 28 days after contamination vs control plants
Method in brief: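 Scipion wheat at 1-leaf stage sprayed with compound, controls receiving acetone/tween/DMSO/water vehicle; 24 h later leaves inoculated with Septoria tritici spores (500 000 spores per ml). Efficacy (%) graded versus control plants 21 to 28 days after contamination.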

Botrytis cinerea = test: In vivo preventive test on Botrytis cinerea (grey mould); conditions: 500 ppm; gherkin plants sprayed 24 hours before contamination; grading 4-5 days after contamination vs control plants
Method in brief: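 Gherkin plants ("Vert petit de Paris") sprayed with compound at Z11 cotyledon stage, then inoculated 24 h later with B. cinerea spores (50 000/ml) in PDB/fructose/NH4NO3/KH2PO4 nutrient solution. Incubated at 17 °C, 80% RH; % efficacy versus solvent-treated controls graded 4–5 days after contamination.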

Phytophthora infestans = assay type: in vivo; conditions: 500 ppm; tomato plants sprayed 24 hours before contamination; grading 5 days after contamination vs control plants
Sphaerotheca fuliginea = test: In vivo preventive test on Sphaerotheca fuliginea (powdery mildew on cucurbits); conditions: 500 ppm; gherkin plants sprayed 24 hours before contamination; grading 12 days after contamination vs control plants
Method in brief: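 Preventive spray of gherkin plants at Z11 cotyledon stage, grown at 24° C; inoculation 24 hours later with Sphaerotheca fuliginea spores (100 000 spores per ml). Efficacy graded 12 days post-inoculation as % versus solvent-treated control plants.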

[2] = method [a]: HPLC/LC-MS on reversed phase at pH 2.7, 0.1% formic acid in water / acetonitrile, gradient 10% to 95% acetonitrile
[3] = HPLC on reversed phase columns, method [a]: pH 2.7, 0.1% formic acid in water / acetonitrile, linear gradient 10% to 95% acetonitrile
[4] = method [a]: HPLC/LC-MS on reversed phase at pH 2.7, 0.1% formic acid in water / acetonitrile, linear gradient 10% to 95% acetonitrile

Row | SMILES | log P [1, 2] | % of efficacy (protection) (Alternaria brassicae) [%] | % of efficacy (protection) (Septoria tritici) [%] | log P [1, 3] | log P [1, 4] | % of efficacy (protection) (Botrytis cinerea) [%] | % of efficacy (protection) (Phytophthora infestans) [%] | % of efficacy (protection) (Sphaerotheca fuliginea) [%] | log P ([1]; HPLC on reversed phase columns, method [a]: pH 2.7, 0.1% formic acid in water and acetonitrile, linear gradient 10% to 95% acetonitrile)
1 | O=C(NC1CC1)C1(CC2CC2)CC(c2ccc3ncc(Br)cc3c2)=NO1 (racemic) [compound 427] | 3.20[a] | 83 |  |  |  |  |  |  | 
2 | C#Cc1cnc2ccc(C3=NOC(C)(C(=O)NCC4OCCc5ccccc54)C3)cc2c1 (single isomer, unassigned) [compound 245] |  | 94 | 71 | 2.92^[a] |  |  |  |  | 
3 | C#Cc1cnc2ccc(C3=NOC(C)(C(=O)NCc4ccc(OC(F)(F)F)cc4)C3)cc2c1 (centres unmarked) [compound 173] |  | 88 |  |  | 3.53^[a] |  |  |  | 
4 | CC1(C(=O)NCc2csc3ccc(Cl)cc23)CC(c2ccc3ncc(Br)cc3c2)=NO1 (centres unmarked) [compound 241] |  | 81 |  | 4.21^[a] |  |  |  |  | 
5 | C#Cc1cnc2ccc(C3=NOC(C)(C(=O)NCc4ccccc4Oc4ccccc4)C3)cc2c1 (centres unmarked) [compound 187] |  | 88 |  |  | 3.89^[a] |  |  |  | 
6 | CC(C)NC(=O)C12OCCCC1C(c1ccc3ncc(Br)cc3c1)=NO2 (centres unmarked) [compound 273] |  | 75 |  | 2.90[a] |  |  |  |  | 
7 | C#Cc1cnc2ccc(C3=NOC(C)(C(=O)NCC4CCCCC4)C3)cc2c1 (centres unmarked) [compound 246] |  | 75 |  | 3.55^[a] |  |  |  |  | 
8 | CC1(C(=O)NCc2ccnc(N3CCOCC3)c2)CC(c2ccc3ncc(Br)cc3c2)=NO1 (centres unmarked) [compound 98] |  | 70 |  |  | 1.51^[a] |  |  |  | 
9 | C#Cc1cnc2ccc(C3=NOC(C)(C(=O)NCc4csc5ccc(Cl)cc45)C3)cc2c1 (centres unmarked) [compound 244] |  | 81 |  | 3.74^[a] |  |  |  |  | 
10 | C#Cc1cc2cc(C3=NOC(C)(C(=O)NCc4cn(CC)nc4C)C3)ccc2nc1Cl (centres unmarked) [compound 411] | 2.59[a] | 80 |  |  |  |  |  |  | 
11 | C#Cc1cnc2ccc(C3=NOC(C)(C(=O)NCc4ccc(C)o4)C3)cc2c1 (centres unmarked) [compound 163] |  | 88 |  |  | 2.8^[a] |  |  |  | 
12 | CCn1cc(CNC(=O)C2(SC)CC(c3ccc4ncc(Br)cc4c3)=NO2)c(C)n1 (centres unmarked) [compound 565] |  |  | 100 | 2.51[a] |  | 100 | 99 | 98 | 
13 | CC1(C(=O)NCc2ccco2)CC(c2ccc3ncc(Br)cc3c2)=NO1 (centres unmarked) [compound 161] |  | 75 |  |  | 2.82^[a] |  |  |  | 
14 | C#Cc1cnc2ccc(C3=NOC(C)(C(=O)NCc4ccc5[nH]c(C)cc5c4)C3)cc2c1 (centres unmarked) [compound 226] |  | 81 |  |  | 2.84^[a] |  |  |  | 
15 | CCn1ncc(CNC(=O)C2(C)CC(c3ccc4ncc(Br)cc4c3)=NO2)c1C (centres unmarked) [compound 100] |  |  | 75 |  | 2.37^[a] | 97 | 98 | 94 | 
16 | CC1(C(=O)NCc2ccc(Oc3ccccc3)cc2)CC(c2ccc3ncc(Br)cc3c2)=NO1 (centres unmarked) [compound 84] |  | 80 |  |  | 4.24^[a] |  |  |  | 
17 | CC1(C(=O)NCc2cccc(OC(F)(F)F)c2)CC(c2ccc3ncc(Br)cc3c2)=NO1 (centres unmarked) [compound 188] |  | 88 |  |  | 3.89^[a] |  |  |  | 
18 | C#Cc1cnc2ccc(C3=NOC(C)(C(=O)NCc4ccc5c(c4)OCCO5)C3)cc2c1 (centres unmarked) [compound 208] |  | 88 |  |  | 2.71^[a] |  |  |  | 
19 | CC(C)NC(=O)C1(CC2CC2)CC(c2ccc3ncc(Br)cc3c2)=NO1 (centres unmarked) [compound 422] | 3.60[a] | 72 |  |  |  |  |  |  | 

Row | SMILES | log P [1, 2] | % of efficacy (protection) (Alternaria brassicae) [%] | % of efficacy (protection) (Septoria tritici) [%] | log P [1, 3] | log P [1, 4] | % of efficacy (protection) (Botrytis cinerea) [%] | % of efficacy (protection) (Phytophthora infestans) [%] | % of efficacy (protection) (Sphaerotheca fuliginea) [%] | log P ([1]; HPLC on reversed phase columns, method [a]: pH 2.7, 0.1% formic acid in water and acetonitrile, linear gradient 10% to 95% acetonitrile)
20 | CCOC1(C(=O)NC(C)C)CC(c2ccc3ncc(Br)cc3c2)=NO1 (centres unmarked) [compound 415] | 2.98[a] | 80 |  |  |  |  |  |  | 
21 | C#Cc1cnc2c(Cl)cc(C3=NOC(C)(C(=O)NCc4cn(CC)nc4C)C3)cc2c1 (centres unmarked) [compound 550] |  |  | 100 | 2.53[a] |  | 98 | 83 | 80 | 
22 | CC1(C(=O)NCc2ccc(Cl)cc2Cl)CC(c2ccc3ncc(Br)cc3c2)=NO1 (centres unmarked) [compound 95] |  | 70 |  |  | 4.16^[a] |  |  |  | 
23 | C#Cc1cnc2ccc(C3=NOC(OC)(C(=O)NC(C)(C)c4nc(C)cs4)C3)cc2c1 (centres unmarked) [compound 514] |  |  | 98 | 2.90[a] |  | 100 | 97 | 75 | 
24 | CCn1cc(CNC(=O)C2(CC)CC(c3ccc4ncc(Br)cc4c3)=NO2)c(C)n1 (centres unmarked) [compound 70] |  |  | 100 |  | 2.66^[a] | 93 | 82 | 100 | 
25 | C#Cc1cnc2ccc(C3=NOC(C)(C(=O)NC(C)(C)/C=N/OC)C3)cc2c1 (centres unmarked) [compound 463] | 2.92[a] |  | 100 |  |  | 100 | 100 | 97 | 
26 | C#Cc1cnc2ccc(C3=NOC(C)(C(=O)NCc4cnn(CC)c4CC)C3)cc2c1 (centres unmarked) [compound 464] | 2.37[a] |  | 100 |  |  | 98 | 100 | 100 | 
27 | C#Cc1cnc2ccc(C3=NOC(C)(C(=O)NC4CCOCC4C)C3)cc2c1 (centres unmarked) [compound 470] | 2.21[a] |  | 97 |  |  | 100 | 98 | 75 | 
28 | C#Cc1cnc2ccc(C3=NOC(C=C)(C(=O)NCC4COC(C)(C)O4)C3)cc2c1 (centres unmarked) [compound 725] |  |  | 100 |  |  | 98 | 83 | 98 | 2.66[a]
29 | CCCOc1cnc2ccc(C3=NOC(C)(C(=O)NC(C)C)C3)cc2c1 (centres unmarked) [compound 412] | 2.16[a] | 70 |  |  |  |  |  |  | 
30 | CCCn1cc(CNC(=O)C2(CC)CC(c3ccc4ncc(Br)cc4c3)=NO2)c(C)n1 (centres unmarked) [compound 500] | 2.91[a] |  | 86 |  |  | 85 | 94 | 100 | 
31 | CC(NC(=O)C1(C)CC(c2ccc3ncc(Br)cc3c2)=NO1)C1CCOC1 (centres unmarked) [compound 291] |  |  | 100 | 2.46[a] |  | 88 | 87 | 80 | 
32 | C#Cc1cnc2c(C)cc(C3=NOC(C)(C(=O)NCc4cn(CCC)nc4C)C3)cc2c1 (centres unmarked) [compound 533] |  |  | 100 | 2.90[a] |  | 100 | 90 | 100 | 
33 | CCOCCCNC(=O)C1(CC2CC2)CC(c2ccc3ncc(Br)cc3c2)=NO1 (racemic) [compound 426] | 3.55[a] | 78 |  |  |  |  |  |  | 
34 | C#Cc1cnc2ccc(C3=NOC(CC)(C(=O)NCc4cn(CCC)nc4C)C3)cc2c1 (racemic) [compound 445] | 2.64[a] |  | 94 |  |  | 93 | 100 | 94 | 
35 | C#Cc1cnc2ccc(C3=NOC(C)(C(=O)NC(C)COCC)C3)cc2c1 (centres unmarked) [compound 506] | 2.55[a] |  | 100 |  |  | 100 | 94 | 97 | 
36 | CC1(C(=O)NCC2(c3ccc(F)cc3)CC2)CC(c2ccc3ncc(Br)cc3c2)=NO1 (centres unmarked) [compound 221] |  | 98 |  |  | 3.81^[a] |  |  |  | 
37 | C#Cc1cnc2ccc(C3=NOC(C)(C(=O)NC(C)C)C3)cc2c1 (centres unmarked) [compound 40] |  |  | 100 |  | 2.28^[a] | 100 | 97 | 100 | 
38 | CC1(C)OCC(CNC(=O)C2(C)CC(c3ccc4ncc(I)cc4c3)=NO2)O1 (centres unmarked) [compound 474] | 2.78[a] |  | 97 |  |  | 100 | 78 | 98 | 
